Tests used:
[1] = system: HCV replicon in human hepatoma Huh-7 cell line; assay: Anti-HCV replicon assay, EC50 (luciferase luminescence); assay type: cell-based; settings: Hepatitis C virus, Huh-7, 72 h
In short: (§1)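 Huh-7 cells carrying HCV replicon (6000/well) incubated with serially diluted compound, 0.5% DMSO final, 3 days at 37° C, 5% CO2. EC50 from luciferase luminescence after 30 min lysis/substrate at room temperature; CC50 from CellTiter-Glo luminescence after 10 min at room temperature.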

[2] = CC50 assay (CellTiter-Glo) in Huh-7 HCV replicon cells; assay type: cell-based; settings: human, Table 2, 3 days incubation
In short: as §1

| SMILES | EC50 [1] | CC50 at 3 days [2] |
| --- | --- | --- |
| C#Cc1ccc2nc(NCc3ccc(S(N)(=O)=O)cc3)nc(N[C@@H](C)C(F)(F)F)c2n1 [Example 289, (S)-4-((6-ethynyl-4-(1,1,1-trifluoropropan-2-ylamino)pyrido[3,2-d]pyrimidin-2-ylamino)methyl)benzene-sulfonamide] | < 100 nM | 1000 to 10000 nM |
| C[C@H](Nc1nc(NCc2ccc(S(N)(=O)=O)cc2)nc2ccc(C#CC3CC3)nc12)C(F)(F)F [Example 290, (S)-4-((6-(2-cyclopropyl-ethynyl)-4-(1,1,1-trifluoro-propan-2-ylamino)pyrido [3,2-d]pyrimidin-2-ylamino)methyl)benzene-sulfonamide] | < 100 nM | 1000 to 10000 nM |
| C#Cc1ccc2nc(NCc3ccc(-n4cncn4)cc3)nc(N[C@@H](C)C(F)(F)F)c2n1 [Example 291, (S)-N^2-(4-(1H-1,2,4-triazol-1-yl)benzyl)-6-ethynyl-N^4-(1,1,1-trifluoropropan-2-yl)pyrido [3,2-d]pyrimidine-2,4-diamine] | < 100 nM | > 10000 nM |
| C[C@H](Nc1nc(NCc2ccc(-n3cncn3)cc2)nc2ccc(C#CC3CC3)nc12)C(F)(F)F [Example 292, (S)-N^2-(4-(1H-1,2,4-triazol-1-yl)benzyl)-6-(2-cyclopropyl-ethynyl)-N^4-(1,1,1-trifluoro-propan-2-yl)pyrido[3,2-d] pyrimidine-2,4-diamine] | 250 to 2000 nM | > 10000 nM |
| C#Cc1ccc2nc(N[C@H](C)c3ccc(S(N)(=O)=O)cc3)nc(OC3CC3)c2n1 [Example 294, (R)-4-(1-(4-cyclopropoxy-6-ethynylpyrido[3,2-d]pyrimidin-2-ylamino)ethyl)benzene-sulfonamide] | < 100 nM | 1000 to 10000 nM |
| C#Cc1ccc2nc(N[C@H](C)c3ccc(S(N)(=O)=O)cc3)nc(OC3(C)CC3)c2n1 [Example 295, (R)-4-(1-(6-ethynyl-4-(1-methylcyclopropoxy)pyrido [3,2-d]pyrimidin-2-ylamino)ethyl)benzenesulfonamide] | < 100 nM | 1000 to 10000 nM |
| C[C@@H](Nc1nc(OC2(C)CC2)c2nc(C#CC3CC3)ccc2n1)c1ccc(S(N)(=O)=O)cc1 [Example 296, (R)-4-(1-(6-(2-cyclopropyl-ethynyl)-4-(1-methylcyclo-propoxy)pyrido[3,2-d]pyrimidin-2-ylamino)ethyl)benzene-sulfonamide] | < 100 nM | > 10000 nM |
| C[C@@H](Nc1nc(NCC(F)(F)F)c2nc(C#Cc3cncs3)ccc2n1)c1ccc(S(N)(=O)=O)cc1 [Example 297, (R)-4-(1-(6-(2-(thiazol-5-yl)ethynyl)-4-(2,2,2-trifluoro-ethylamino)pyrido[3,2-d]pyrimidin-2-ylamino)ethyl) benzenesulfonamide] | 250 to 2000 nM | > 10000 nM |
| CC#Cc1ccc2nc(N[C@H](C)c3ccc(S(N)(=O)=O)cc3)nc(NCC(F)(F)F)c2n1 [Example 298, (R)-4-(1-(6-(prop-1-ynyl)-4-(2,2,2-trifluoroethylamino)pyrido[3,2-d]pyrimidin-2-ylamino)ethyl)benzene-sulfonamide] | < 100 nM | > 10000 nM |
| C[C@@H](Nc1nc(O[C@@H]2C[C@@H]3C[C@@H]3C2)c2nc(C#CC3CC3)ccc2n1)c1ccc(S(N)(=O)=O)cc1 [Example 299, 4-((R)-1-(4-((1S,3r,5R)-bicyclo [3.1.0]hexan-3-yloxy)-6-(2-cyclopropylethynyl)pyrido [3,2-d]pyrimidin-2-ylamino)ethyl)benzenesulfonamide] | < 100 nM | 1000 to 10000 nM |
| C#Cc1ccc2nc(NCc3ccc(S(N)(=O)=O)cc3)nc(OC3CC3)c2n1 [Example 300, 4-((4-cyclopropoxy-6-ethynylpyrido[3,2-d]pyrimidin-2-ylamino)methyl) benzenesulfonamide] | 250 to 2000 nM | 1000 to 10000 nM |
| CC1(Oc2nc(NCc3cc(Cl)cc(S(N)(=O)=O)c3)nc3ccc(C#CC4CC4)nc23)CC1 [Example 301, 3-chloro-5-((6-(2-cyclopropyl-ethynyl)-4-(1-methylcyclo-propoxy)pyrido[3,2-d]pyrimidin-2-ylamino)methyl) benzenesulfonamide] | < 100 nM | > 10000 nM |
| CC#Cc1ccc2nc(N[C@H](C)c3ccc(S(N)(=O)=O)cc3)nc(OC3(C)CC3)c2n1 [Example 302, (R)-4-(1-(4-(1-methylcyclo-propoxy)-6-(prop-1-ynyl)pyrido[3,2-d]pyrimidin-2-ylamino)ethyl)benzene-sulfonamide] | < 100 nM | > 10000 nM |
| C=Cc1ccc2nc(NCc3cc(Cl)cc(S(N)(=O)=O)c3)nc(OC3(C)CC3)c2n1 [Example 303, 3-chloro-5-((4-(1-methylcyclo-propoxy)-6-vinylpyrido[3,2-d]pyrimidin-2-ylamino)methyl) benzenesulfonamide] | 100 to 250 nM | > 10000 nM |
| CC(C)Oc1nc(N[C@H](C)c2ccc(S(N)(=O)=O)cc2)nc2ccc(C#CC3CC3)nc12 [Example 304, (R)-4-(1-(6-(2-cyclopropyl-ethynyl)-4-isopropoxypyrido [3,2-d]pyrimidin-2-ylamino)ethyl)benzenesulfonamide] | < 100 nM | > 10000 nM |
| C[C@@H](Nc1nc(OC2CCC2)c2nc(C#CC3CC3)ccc2n1)c1ccc(S(N)(=O)=O)cc1 [Example 305, (R)-4-(1-(4-cyclobutoxy-6-(2-cyclopropylethynyl)pyrido [3,2-d]pyrimidin-2-ylamino)ethyl)benzenesulfonamide] | < 100 nM | > 10000 nM |
| C#Cc1ccc2nc(N[C@H](C)c3ccc(S(N)(=O)=O)cc3)nc(OC(C)C)c2n1 [Example 306, (R)-4-(1-(6-ethynyl-4-isopropoxypyrido[3,2-d]pyrimidin-2-ylamino)ethyl) benzenesulfonamide] | 250 to 2000 nM | < 1000 nM |
| C#Cc1ccc2nc(N[C@H](C)c3ccc(S(N)(=O)=O)cc3)nc(OC3CCC3)c2n1 [Example 307, (R)-4-(1-(4-cyclobutoxy-6-ethynylpyrido[3,2-d]pyrimidin-2-ylamino)ethyl)benzene-sulfonamide] | 250 to 2000 nM | 1000 to 10000 nM |
| CC(C)Oc1nc(NCc2ccc(-n3cncn3)cc2)nc2ccc(C#CC3CC3)nc12 [Example 308, N-(4-(1H-1,2,4-triazol-1-yl)benzyl)-6-(2-cyclopropyl-ethynyl)-4-isopropoxypyrido [3,2-d]pyrimidin-2-amine] | 250 to 2000 nM | > 10000 nM |
| CC#Cc1ccc2nc(N[C@H](C)c3ccc(S(N)(=O)=O)cc3)nc(OC3CC3)c2n1 [Example 309, (R)-4-(1-(4-cyclopropoxy-6-(prop-1-ynyl)pyrido[3,2-d]pyrimidin-2-ylamino)ethyl) benzenesulfonamide] | < 100 nM | > 10000 nM |
| CC#Cc1ccc2nc(N[C@H](C)c3ccc(S(N)(=O)=O)cc3)nc(OC3CCC3)c2n1 [Example 310, (R)-4-(1-(4-cyclobutoxy-6-(prop-1-ynyl)pyrido[3,2-d]pyrimidin-2-ylamino)ethyl) benzenesulfonamide] | < 100 nM | > 10000 nM |
| CC#Cc1ccc2nc(NCc3cc(Cl)cc(S(N)(=O)=O)c3)nc(OC3(C)CC3)c2n1 [Example 311, 3-chloro-5-((4-(1-methylcyclo-propoxy)-6-(prop-1-ynyl)pyrido [3,2-d]pyrimidin-2-ylamino)methyl)benzenesulfonamide] | < 100 nM | > 10000 nM |
| C=Cc1ccc2nc(N[C@H](C)c3ccc(S(N)(=O)=O)cc3)nc(NCC(F)(F)F)c2n1 [Example 312, (R)-4-(1-(4-(2,2,2-trifluoro-ethylamino)-6-vinylpyrido [3,2-d]pyrimidin-2-ylamino)ethyl)benzenesulfonamide] | 100 to 250 nM | > 10000 nM |
| CC#Cc1ccc2nc(N[C@H](C)c3ccc(S(N)(=O)=O)cc3)nc(O[C@@H]3C[C@@H]4C[C@@H]4C3)c2n1 [Example 313, 4-((R)-1-(4-((1S,3r,5R)-bicyclo[3.1.0]hexan-3-yloxy)-6-(prop-1-ynyl)pyrido[3,2-d]pyrimidin-2-ylamino)ethyl) benzenesulfonamide] | < 100 nM | > 10000 nM |
| C#Cc1ccc2nc(N[C@H](C)c3ccc(S(N)(=O)=O)cc3)nc(O[C@@H]3C[C@@H]4C[C@@H]4C3)c2n1 [Example 314, 4-((R)-1-(4-((1S,3r,5R)-bicyclo[3.1.0]hexan-3-yloxy)-6-ethynylpyrido[3,2-d]pyrimidin-2-ylamino)ethyl) benzenesulfonamide] | < 100 nM | > 10000 nM |
| COc1nc(N[C@H](C)c2ccc(S(N)(=O)=O)cc2)nc2ccc(C#CC3CC3)nc12 [Example 315, (R)-4-(1-(6-(2-cyclopropyl-ethynyl)-4-methoxypyrido [3,2-d]pyrimidin-2-ylamino)ethyl)benzenesulfonamide] | 250 to 2000 nM | > 10000 nM |
| CCOc1nc(N[C@H](C)c2ccc(S(N)(=O)=O)cc2)nc2ccc(C#CC3CC3)nc12 [Example 316, (R)-4-(1-(6-(2-cyclopropyl-ethynyl)-4-ethoxypyrido [3,2-d]pyrimidin-2-ylamino)ethyl)benzenesulfonamide] | 100 to 250 nM | > 10000 nM |

Reference: US8536187B2 (Gilead Sciences, Inc., priority 2008, dated 2013)
